Values joined by “and” are separate entries in the source; they are usually repeats but may differ in a detail not shown here. Equal entries are not always repeated.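 Cells were grown in 96-well plates and exposed to each compound for 48 hours at five concentrations; endpoints were interpolated linearly between bracketing concentrations, or set to the highest concentration if not reached. Here, GI50 denotes the concentration required for 50% inhibition of growth. TGI: total growth inhibition.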
Experiments:
Experiment in all cases: growth of human tumour cells (NCI), 48 h
[1] = tested on: DU-145 prostate
[2] = tested on: EKVX NSCLC
[3] = tested on: NCI-H23 lung
[4] = tested on: RPMI-8226 leukemia
[5] = tested on: SF-539 CNS
[6] = tested on: SK-MEL-5 melanoma
[7] = tested on: SNB-19 CNS
[8] = tested on: SNB-75 CNS

SMILES | GI50 [1] | TGI [1] | GI50 [2] | TGI [2] | GI50 [3] | TGI [3] | GI50 [4] | TGI [4] | GI50 [5] | TGI [5] | GI50 [6] | TGI [6] | GI50 [7] | TGI [7] | GI50 [8] | TGI [8]
Cc1ccc(C2C3Cc4ccccc4C3=NN2c2ccc(S(=O)(=O)NC(=O)Nc3ccccc3)cc2)cc1 (stereo not given) | 14.2 µM | 27.2 µM | 13.7 µM | 33 µM | 14.9 µM | 31.9 µM | 15 µM | 47.2 µM | 14.3 µM | 30.6 µM | 13.1 µM | 25.7 µM | 25.4 µM | > 100 µM | 17.9 µM | 47.8 µM
CCSCCCC(=O)O |  | > 100 µM |  | > 100 µM |  | > 100 µM |  | > 100 µM |  |  |  | > 100 µM |  | > 100 µM |  | > 100 µM
COc1ccc2c(c1)C(=O)c1c-2n(CCCCl)c(=O)c2cc(N)ccc12 | 56.9 µM | > 100 µM | > 100 µM | > 100 µM | > 100 µM | > 100 µM | > 100 µM | > 100 µM | > 100 µM | > 100 µM | 51 µM | > 100 µM | > 100 µM | > 100 µM | > 51.7 µM | > 85.7 µM
Nc1ncnc2c1ncn2CCCCC(=O)O |  | > 100 µM |  | > 100 µM |  | > 100 µM |  | > 100 µM |  | > 100 µM |  | > 100 µM |  | > 100 µM |  | > 100 µM
Cc1cc(OCc2nn(CN3CCN(C)CC3)c(=S)n2/N=C/c2ccc(F)cc2)ccc1Cl | 20.7 µM | 40.7 µM | 20.4 µM | 43 µM | 16.9 µM | 31.1 µM | 16.8 µM | 40.7 µM | 19.3 µM | 40.1 µM | 16.7 µM | 30.6 µM | 17.6 µM | 33.8 µM | 13.4 µM | 32.2 µM
C1=C\CCCCN2CC[C@H]3[C@H](CCCC/C=C\CCCN4C[C@@H](CCCCC/1)C[C@@H]3C4)C2 | 11.7 µM | 23.9 µM | 11.8 µM | 25 µM | 14.3 µM | 30.2 µM | 2.06 µM | 6.16 µM | 3.24 µM | 11.5 µM | 4.75 µM | 16.7 µM | 16.4 µM | 30.5 µM | 3.99 µM | 18.9 µM
COc1cc(/C=C/c2ccnc3ccccc23)cc(OC)c1OC | 3.06 µM | 30.3 µM and 20.7 µM | 6.27 µM | > 100 µM |  | 6.92 µM and 9.64 µM | 6.55 µM |  |  | 11.5 µM and 23.3 µM |  | 10.5 µM and 11.5 µM | 6.71 µM | 42.1 µM and > 100 µM | 1.7 µM | 5.4 µM
C/C(=N\NC(=S)N1CCN(c2ccccn2)CC1)c1cccc2cccnc12 |  |  |  | > 45.3 µM |  | > 100 µM |  | 20.2 µM |  | > 31.6 µM |  | > 43.2 µM |  | > 100 µM |  | > 70.2 µM
CC(C)(C)OC(=O)N1Cc2cc3ccccc3nc2C1CO (stereo not given) | > 100 µM | > 100 µM | > 100 µM | > 100 µM | > 100 µM | > 100 µM | > 100 µM | > 100 µM | > 100 µM | > 100 µM | > 100 µM | > 100 µM | > 100 µM | > 100 µM | > 100 µM | > 100 µM
COc1cccc(-c2nn(-c3ccccc3)cc2-c2ccnc(NCCCNS(=O)(=O)c3ccc(C(F)(F)F)cc3)c2)c1 | 22.7 µM | > 100 µM | 4.61 µM | > 100 µM | 4.86 µM | > 100 µM | 3.63 µM | > 100 µM | 5.66 µM | > 100 µM | 2.18 µM | 5.04 µM |  |  | 5.1 µM | > 100 µM
CCCCNCCCCCNc1cc(OC)cc2cccnc12 | 23.1 µM | 56.3 µM | 29.6 µM | 99.2 µM | 15.9 µM | 31.7 µM | 15.5 µM | 39.8 µM | 18.3 µM | 34 µM | 12.6 µM | 27.6 µM | 13.8 µM | 31.5 µM |  | 
Cc1nn(-c2ccccc2)c2nc(C)n(-c3ccc(Br)cc3)c(=O)c12 | 1.44 µM | > 100 µM | 0.822 µM | > 100 µM | 0.823 µM | > 100 µM | 0.571 µM | > 54.6 µM | 0.35 µM | 7.09 µM | 0.516 µM | 11.1 µM | 0.547 µM | > 100 µM | 0.181 µM | 0.725 µM
CCN(CC)CCCC(C)Nc1ccnc(/C=C/c2ccc(Cl)cc2)c1 (stereo not given) |  | 17.6 µM |  | 15.6 µM |  | 23.7 µM |  | 5.74 µM |  | 3.8 µM |  | 6.17 µM |  | 16.6 µM |  | 4.5 µM
O=C(Nc1cc2cc([N+](=O)[O-])ccc2oc1=O)c1cccs1 |  | > 100 µM |  | > 100 µM |  |  |  | > 100 µM |  | 69.9 µM |  | 45 µM |  | > 100 µM |  | 16.5 µM
COC(=O)[C@H](CCCCNC(=O)OCc1ccccc1)NC(=O)[C@@H](NC(=O)Nc1cc(C(F)(F)F)cc(C(F)(F)F)c1)C(C)C | > 10 µM | > 10 µM |  |  | > 10 µM | > 10 µM | > 10 µM | > 10 µM | > 10 µM | > 10 µM | > 10 µM | > 10 µM | > 10 µM | > 10 µM | > 10 µM | > 10 µM
CC[Si](CC)(CC)OC1[C@@H](O[Si](CC)(CC)CC)[C@@H](CNC(=O)NC)O[C@H]1n1cnc2c(NC(=O)Nc3ccccc3)ncnc21 (stereo not given in full) | 4.41 µM | > 100 µM |  |  | 3.64 µM | > 100 µM | 2.13 µM | 5.33 µM | 7.02 µM | > 100 µM | 2.01 µM | 4.02 µM | 5.28 µM | > 100 µM | 3.95 µM | > 100 µM
O=C(CC1Sc2ccccc2NC1=O)NNc1ccc(F)cc1 (stereo not given) | 57 µM | > 100 µM | > 100 µM | > 100 µM | > 100 µM | > 100 µM | 52 µM | > 100 µM | 16.3 µM | 61.8 µM | 46.1 µM | > 100 µM |  |  | 14.9 µM | > 100 µM

— PubChem BioAssay (NCI)
